c1ccc(P(c2ccccc2)c2ccccc2)cc1
Settings | solubility (mole fraction)
in acetone, 303.2 K | 0.089
in acetone, 308.1 K | 0.12
in acetone, 313.4 K | 0.14
in acetone, 318.2 K | 0.19
in acetone, 323.5 K | 0.25
in acetone, 327.8 K | 0.33
in acetone, 333.1 K | 0.42
in benzene, 303.3 K | 0.069
in benzene, 308.6 K | 0.095
in benzene, 312.9 K | 0.12
in benzene, 318.1 K | 0.16
in benzene, 323.2 K | 0.22
in benzene, 328.1 K | 0.28
in benzene, 333.2 K | 0.37
in ethanol, 303.5 K | 0.0095
in ethanol, 308.3 K | 0.012
in ethanol, 313.3 K | 0.016
in ethanol, 318.6 K | 0.022
in ethanol, 323.2 K | 0.028
in ethanol, 327.9 K | 0.038
in ethanol, 333 K | 0.05
in isopropanol, 303.1 K | 0.0077
in isopropanol, 308.4 K | 0.01
in isopropanol, 313.3 K | 0.014
in isopropanol, 318.2 K | 0.019
in isopropanol, 322.9 K | 0.025
in isopropanol, 328.4 K | 0.033
in isopropanol, 333.2 K | 0.045
in toluene, 302.4 K | 0.05
in toluene, 308.2 K | 0.07
in toluene, 313.7 K | 0.1
in toluene, 318.2 K | 0.13
in toluene, 323.3 K | 0.18
in toluene, 328.3 K | 0.24
in toluene, 333.4 K | 0.32

Reference: BigSolDB 2.1
